Data taken from PMC7026418, “The kinase polypharmacology landscape of clinical PARP inhibitors” (Scientific Reports, 2020).
Where two headings read alike, the source gives them in different places. Blank lines part the entries; values can stand above or below the molecule they belong to.

What was measured:
Assay in all cases: biochemical
Parameters in all cases: DiscoveRx KINOMEscan active site-directed competition binding; percent of control kinase bound to immobilised ligand
[1] = molecular target: T1, BRSK2 (Homo sapiens, UniProt Q8IWQ3)
T1 sequence (Q8IWQ3 1-736): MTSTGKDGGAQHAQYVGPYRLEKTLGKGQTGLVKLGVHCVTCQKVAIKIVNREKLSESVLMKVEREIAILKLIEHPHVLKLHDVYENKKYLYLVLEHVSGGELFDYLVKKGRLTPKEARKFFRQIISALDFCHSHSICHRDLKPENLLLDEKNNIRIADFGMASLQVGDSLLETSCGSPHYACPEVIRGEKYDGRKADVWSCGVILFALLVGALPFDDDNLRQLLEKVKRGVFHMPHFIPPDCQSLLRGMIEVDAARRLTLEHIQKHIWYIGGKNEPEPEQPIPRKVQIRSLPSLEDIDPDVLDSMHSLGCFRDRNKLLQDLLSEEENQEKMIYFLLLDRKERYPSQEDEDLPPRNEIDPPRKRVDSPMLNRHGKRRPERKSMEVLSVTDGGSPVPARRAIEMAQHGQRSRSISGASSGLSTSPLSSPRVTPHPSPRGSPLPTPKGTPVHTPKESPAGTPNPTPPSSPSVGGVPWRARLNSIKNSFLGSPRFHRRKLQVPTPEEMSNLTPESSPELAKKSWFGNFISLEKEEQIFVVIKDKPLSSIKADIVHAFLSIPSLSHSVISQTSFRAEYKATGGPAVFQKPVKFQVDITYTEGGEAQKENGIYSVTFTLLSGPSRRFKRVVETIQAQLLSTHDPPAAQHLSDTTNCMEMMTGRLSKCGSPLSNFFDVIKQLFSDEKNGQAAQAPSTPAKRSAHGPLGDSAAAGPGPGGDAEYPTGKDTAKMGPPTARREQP

[2] = molecular target: T2, FLT3 (Homo sapiens, UniProt P36888)
T2 sequence (P36888 1-993): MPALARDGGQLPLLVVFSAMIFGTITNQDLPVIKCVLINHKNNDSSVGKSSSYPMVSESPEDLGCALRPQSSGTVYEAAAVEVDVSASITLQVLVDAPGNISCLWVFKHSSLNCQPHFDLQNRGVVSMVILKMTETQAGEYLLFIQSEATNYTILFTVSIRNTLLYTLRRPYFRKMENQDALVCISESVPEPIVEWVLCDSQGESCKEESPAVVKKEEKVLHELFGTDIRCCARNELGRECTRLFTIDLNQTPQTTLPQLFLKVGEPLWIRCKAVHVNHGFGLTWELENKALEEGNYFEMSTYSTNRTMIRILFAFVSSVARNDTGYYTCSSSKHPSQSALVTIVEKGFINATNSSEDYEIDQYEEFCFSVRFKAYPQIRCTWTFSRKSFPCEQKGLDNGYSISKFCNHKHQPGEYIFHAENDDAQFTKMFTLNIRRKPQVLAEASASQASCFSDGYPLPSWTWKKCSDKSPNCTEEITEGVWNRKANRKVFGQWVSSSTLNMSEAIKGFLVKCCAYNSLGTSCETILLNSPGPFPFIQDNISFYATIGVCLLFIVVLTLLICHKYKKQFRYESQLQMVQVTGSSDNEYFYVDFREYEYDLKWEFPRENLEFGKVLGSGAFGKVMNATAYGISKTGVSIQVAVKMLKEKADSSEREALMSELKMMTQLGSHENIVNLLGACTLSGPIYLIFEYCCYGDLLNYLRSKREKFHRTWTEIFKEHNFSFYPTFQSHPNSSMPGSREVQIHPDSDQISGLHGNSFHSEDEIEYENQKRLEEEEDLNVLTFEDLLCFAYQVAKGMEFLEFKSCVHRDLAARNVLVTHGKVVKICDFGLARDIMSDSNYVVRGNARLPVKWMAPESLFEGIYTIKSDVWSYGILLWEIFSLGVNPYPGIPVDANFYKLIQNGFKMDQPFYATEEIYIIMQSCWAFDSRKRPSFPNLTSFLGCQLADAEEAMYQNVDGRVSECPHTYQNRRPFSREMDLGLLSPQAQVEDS

[3] = molecular target: LCK (Homo sapiens, UniProt P06239)
[4] = molecular target: LRRK2 (Homo sapiens, UniProt Q5S007)
[5] = molecular target: PIM2 (Homo sapiens, UniProt Q9P1W9)
[6] = molecular target: T3, PRKX (Homo sapiens, UniProt P51817)
T3 sequence (P51817 1-358): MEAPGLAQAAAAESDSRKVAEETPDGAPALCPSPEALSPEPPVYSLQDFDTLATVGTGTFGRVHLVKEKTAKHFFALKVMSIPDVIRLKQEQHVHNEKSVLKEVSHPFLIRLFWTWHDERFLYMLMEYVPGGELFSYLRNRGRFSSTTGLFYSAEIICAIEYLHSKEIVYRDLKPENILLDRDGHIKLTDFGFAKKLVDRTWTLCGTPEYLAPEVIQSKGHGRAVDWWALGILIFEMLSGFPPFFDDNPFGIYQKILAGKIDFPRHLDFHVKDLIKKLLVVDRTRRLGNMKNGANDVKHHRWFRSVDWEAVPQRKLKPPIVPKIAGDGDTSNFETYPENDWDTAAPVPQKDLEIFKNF

[7] = molecular target: T4, RSK3(Kin.Dom.2-C-terminal) (Homo sapiens, UniProt Q15349)
T4 construct: gene RPS6KA2; Kin.Dom.2-C-terminal

[8] = read-out: Niraparib (MK-4827) / %Ctrl @ 10000nM
[9] = read-out: Rucaparib / %Ctrl @ 10000nM, binding competition, % of control
[10] = read-out: Olaparib / %Ctrl @ 10000nM
[11] = read-out: Talazoparib (BMN 673) / %Ctrl @ 10000nM

Sequence of LRRK2 (Q5S007 whole entry): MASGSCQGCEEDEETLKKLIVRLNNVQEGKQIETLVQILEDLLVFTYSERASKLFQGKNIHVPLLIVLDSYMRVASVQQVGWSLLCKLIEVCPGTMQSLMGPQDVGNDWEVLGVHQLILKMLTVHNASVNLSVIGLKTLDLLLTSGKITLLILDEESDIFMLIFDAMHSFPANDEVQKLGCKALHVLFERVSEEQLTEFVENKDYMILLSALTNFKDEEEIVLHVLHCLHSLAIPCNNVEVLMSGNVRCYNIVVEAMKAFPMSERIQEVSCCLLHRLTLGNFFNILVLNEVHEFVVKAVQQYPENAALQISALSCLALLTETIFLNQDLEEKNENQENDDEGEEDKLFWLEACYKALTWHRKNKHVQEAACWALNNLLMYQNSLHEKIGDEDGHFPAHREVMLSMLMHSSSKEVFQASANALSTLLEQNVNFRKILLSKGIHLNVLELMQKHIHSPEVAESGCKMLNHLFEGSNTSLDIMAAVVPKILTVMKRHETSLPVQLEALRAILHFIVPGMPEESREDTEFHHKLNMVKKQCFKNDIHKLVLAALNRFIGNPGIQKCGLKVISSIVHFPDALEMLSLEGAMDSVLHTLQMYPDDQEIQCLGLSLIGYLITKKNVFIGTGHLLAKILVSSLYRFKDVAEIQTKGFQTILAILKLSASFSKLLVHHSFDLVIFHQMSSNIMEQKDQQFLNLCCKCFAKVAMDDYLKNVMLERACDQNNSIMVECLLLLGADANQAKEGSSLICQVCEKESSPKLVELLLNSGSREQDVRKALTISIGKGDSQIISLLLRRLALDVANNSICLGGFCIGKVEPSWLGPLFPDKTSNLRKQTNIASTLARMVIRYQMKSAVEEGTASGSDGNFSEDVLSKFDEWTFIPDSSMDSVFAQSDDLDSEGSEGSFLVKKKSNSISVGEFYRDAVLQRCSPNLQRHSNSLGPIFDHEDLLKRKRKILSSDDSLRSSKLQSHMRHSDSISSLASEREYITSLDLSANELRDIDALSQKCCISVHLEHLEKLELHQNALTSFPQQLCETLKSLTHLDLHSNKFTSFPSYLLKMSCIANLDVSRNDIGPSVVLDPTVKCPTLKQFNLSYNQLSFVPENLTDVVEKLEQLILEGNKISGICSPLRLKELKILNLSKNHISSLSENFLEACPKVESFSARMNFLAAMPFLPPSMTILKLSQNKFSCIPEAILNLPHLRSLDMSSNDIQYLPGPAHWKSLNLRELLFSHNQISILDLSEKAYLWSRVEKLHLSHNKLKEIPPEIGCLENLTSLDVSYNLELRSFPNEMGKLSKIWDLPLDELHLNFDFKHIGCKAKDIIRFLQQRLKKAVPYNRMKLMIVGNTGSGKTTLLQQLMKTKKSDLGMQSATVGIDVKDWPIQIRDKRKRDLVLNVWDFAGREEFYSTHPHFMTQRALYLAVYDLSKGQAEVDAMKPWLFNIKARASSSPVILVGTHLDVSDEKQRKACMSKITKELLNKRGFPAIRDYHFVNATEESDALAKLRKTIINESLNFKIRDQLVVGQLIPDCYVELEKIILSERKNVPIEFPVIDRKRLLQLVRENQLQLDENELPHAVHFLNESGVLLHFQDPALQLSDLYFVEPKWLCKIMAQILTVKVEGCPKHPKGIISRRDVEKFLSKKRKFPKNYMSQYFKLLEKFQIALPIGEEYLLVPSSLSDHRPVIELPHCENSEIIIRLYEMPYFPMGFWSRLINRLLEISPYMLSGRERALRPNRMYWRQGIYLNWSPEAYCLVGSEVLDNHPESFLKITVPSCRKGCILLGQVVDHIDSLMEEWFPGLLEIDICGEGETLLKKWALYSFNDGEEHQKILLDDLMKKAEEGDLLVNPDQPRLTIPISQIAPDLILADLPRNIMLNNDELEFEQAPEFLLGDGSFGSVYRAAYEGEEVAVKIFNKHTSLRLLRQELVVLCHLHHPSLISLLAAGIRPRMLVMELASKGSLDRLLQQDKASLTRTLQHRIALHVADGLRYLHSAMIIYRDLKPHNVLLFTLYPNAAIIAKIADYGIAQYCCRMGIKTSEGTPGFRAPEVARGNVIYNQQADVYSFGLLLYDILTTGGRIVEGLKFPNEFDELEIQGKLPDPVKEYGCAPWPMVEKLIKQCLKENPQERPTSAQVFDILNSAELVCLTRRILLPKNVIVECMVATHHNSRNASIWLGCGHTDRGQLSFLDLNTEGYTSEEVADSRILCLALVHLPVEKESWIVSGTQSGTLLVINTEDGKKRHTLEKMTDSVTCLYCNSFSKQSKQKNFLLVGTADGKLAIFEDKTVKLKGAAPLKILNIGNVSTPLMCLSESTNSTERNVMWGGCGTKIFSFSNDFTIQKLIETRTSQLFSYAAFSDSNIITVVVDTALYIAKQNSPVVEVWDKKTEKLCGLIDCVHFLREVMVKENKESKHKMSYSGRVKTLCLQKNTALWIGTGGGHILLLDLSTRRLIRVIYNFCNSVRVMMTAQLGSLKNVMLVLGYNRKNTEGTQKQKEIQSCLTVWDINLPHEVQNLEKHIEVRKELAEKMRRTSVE
Sequence of LCK (P06239 whole entry): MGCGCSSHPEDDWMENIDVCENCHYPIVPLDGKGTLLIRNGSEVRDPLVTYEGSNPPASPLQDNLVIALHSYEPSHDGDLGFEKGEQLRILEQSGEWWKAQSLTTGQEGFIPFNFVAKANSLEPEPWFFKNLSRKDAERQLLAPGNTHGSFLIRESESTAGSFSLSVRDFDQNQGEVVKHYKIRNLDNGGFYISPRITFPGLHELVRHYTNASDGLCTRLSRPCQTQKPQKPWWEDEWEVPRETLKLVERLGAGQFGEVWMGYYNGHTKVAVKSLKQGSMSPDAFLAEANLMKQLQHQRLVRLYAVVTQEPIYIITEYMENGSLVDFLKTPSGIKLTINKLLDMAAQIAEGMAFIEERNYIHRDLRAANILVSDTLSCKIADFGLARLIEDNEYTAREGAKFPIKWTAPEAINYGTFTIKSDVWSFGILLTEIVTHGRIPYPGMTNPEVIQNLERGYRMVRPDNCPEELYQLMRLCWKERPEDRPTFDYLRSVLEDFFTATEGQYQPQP
Sequence of PIM2 (Q9P1W9 whole entry): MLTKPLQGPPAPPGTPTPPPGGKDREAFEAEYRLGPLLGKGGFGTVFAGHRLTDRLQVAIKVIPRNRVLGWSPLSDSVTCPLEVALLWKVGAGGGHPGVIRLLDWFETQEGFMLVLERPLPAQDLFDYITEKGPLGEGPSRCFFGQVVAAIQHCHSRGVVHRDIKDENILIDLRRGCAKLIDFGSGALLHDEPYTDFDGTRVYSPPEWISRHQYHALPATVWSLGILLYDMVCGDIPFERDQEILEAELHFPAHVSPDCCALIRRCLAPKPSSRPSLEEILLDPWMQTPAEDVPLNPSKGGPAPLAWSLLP
T4 sequence (Q15349 whole entry): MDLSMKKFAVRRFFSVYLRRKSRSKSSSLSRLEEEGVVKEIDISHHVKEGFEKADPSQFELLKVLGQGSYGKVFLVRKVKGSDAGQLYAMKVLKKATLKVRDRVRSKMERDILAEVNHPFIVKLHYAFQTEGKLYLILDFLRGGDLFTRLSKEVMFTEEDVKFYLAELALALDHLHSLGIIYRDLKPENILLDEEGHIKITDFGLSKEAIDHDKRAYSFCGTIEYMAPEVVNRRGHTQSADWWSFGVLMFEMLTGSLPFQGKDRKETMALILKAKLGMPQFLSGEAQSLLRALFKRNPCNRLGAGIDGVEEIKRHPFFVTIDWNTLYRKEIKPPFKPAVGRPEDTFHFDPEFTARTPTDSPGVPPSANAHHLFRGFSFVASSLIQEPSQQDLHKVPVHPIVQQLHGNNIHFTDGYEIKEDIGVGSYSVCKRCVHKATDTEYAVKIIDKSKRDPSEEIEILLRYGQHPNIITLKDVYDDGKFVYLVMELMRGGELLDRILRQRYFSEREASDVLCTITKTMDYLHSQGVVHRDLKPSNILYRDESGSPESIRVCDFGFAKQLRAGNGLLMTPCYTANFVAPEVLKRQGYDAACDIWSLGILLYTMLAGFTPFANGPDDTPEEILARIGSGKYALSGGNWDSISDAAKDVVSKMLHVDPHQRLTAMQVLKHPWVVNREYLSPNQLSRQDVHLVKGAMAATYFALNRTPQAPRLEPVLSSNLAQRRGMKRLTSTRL

SMILES: NC(=O)c1cccc2cn(-c3ccc([C@@H]4CCCNC4)cc3)nc12 [Niraparib]
percent of control binding at 10 µM [1, 8]: 91%
percent of control binding at 10 µM [2, 8]: 70%
percent of control binding at 10 µM [3, 8]: 82%
percent of control binding at 10 µM [4, 8]: 96%
percent of control binding at 10 µM [5, 8]: 13%
percent of control binding at 10 µM [6, 8]: 96%
percent of control binding at 10 µM [7, 8]: 93%

percent of control binding at 10 µM [1, 9]: 76%
Rucaparib / %Ctrl @ 10000nM ([2]; binding competition, % of control): 98%
percent of control binding at 10 µM [3, 9]: 95%
percent of control binding at 10 µM [4, 9]: 78%
percent of control binding at 10 µM [5, 9]: 36%
percent of control binding at 10 µM [6, 9]: 92%
percent of control binding at 10 µM [7, 9]: 67%
SMILES: CNCc1ccc(-c2[nH]c3cc(F)cc4c3c2CCNC4=O)cc1 [Rucaparib]

percent of control binding at 10 µM [1, 10]: 95%
percent of control binding at 10 µM [2, 10]: 100%
percent of control binding at 10 µM [3, 10]: 100%
percent of control binding at 10 µM [4, 10]: 100%
percent of control binding at 10 µM [5, 10]: 100%
percent of control binding at 10 µM [6, 10]: 88%
percent of control binding at 10 µM [7, 10]: 70%
SMILES: O=C(c1cc(Cc2n[nH]c(=O)c3ccccc23)ccc1F)N1CCN(C(=O)C2CC2)CC1 [Olaparib]

percent of control binding at 10 µM [1, 11]: 63%
percent of control binding at 10 µM [2, 11]: 94%
percent of control binding at 10 µM [3, 11]: 90%
percent of control binding at 10 µM [4, 11]: 100%
percent of control binding at 10 µM [5, 11]: 98%
percent of control binding at 10 µM [6, 11]: 94%
percent of control binding at 10 µM [7, 11]: 100%
SMILES: Cn1ncnc1[C@H]1c2n[nH]c(=O)c3cc(F)cc(c23)N[C@@H]1c1ccc(F)cc1 [Talazoparib]
